The text below walks through data of patent publication US8377434B2, “Cosmetic composition for exfoliating skin keratin” (Amorepacific Corporation, priority 2006, dated 2013).

The experiment deals with skin. Put plainly: in vivo and ex vivo studies of N-acetyl glucosamine on skin.

Turning to `CC(=O)N[C@H]1C(O)O[C@H](CO)[C@@H](O)[C@@H]1O` (some centres unmarked) [N-acetyl glucosamine], the “production of hyaluronic acid” value is “promote the production of hyaluronic acid”. Also, the “improvement of excessive pigmentation, skin tone and barrier function” value (in vivo and ex vivo studies) is “effective in improving excessive pigmentation, skin tone and barrier function”.
